Measured values taken from patent US20090176772A1, “METHOD OF REVERSING LEFT VENTRICULAR REMODELING” (priority 2004, published 2009).

Experiments:
[1] = test system: dogs with chronic heart failure produced by multiple sequential intracoronary microembolizations; assay: Histomorphometric evaluations of LV tissue of dogs with chronic heart failure; format: in vivo, dog
Text: (§1) The following example examines the effects of ranolazine alone and in combination with an angiotensin converting enzyme (ACE) inhibitor and in combination with a beta-blocker on the progression of left ventricular (LV) dysfunction and LV chamber remodeling in dogs with chronic heart failure produced by multiple sequential intracoronary microembolizations.
(§2) Chronic LV dysfunction and failure in dogs was produced by multiple sequential intracoronary embolizations with polystyrene Latex microspheres (77-109 μm in diameter) as previously described by Sabbah et al. (1991) Am. J. Physiol. 260:H1379-H1384. Coronary microembolizations were performed during cardiac catheterization under general anesthesia and sterile conditions. Anesthesia was induced using a combination of intravenous injections of hydromorphone (0.22 mg/kg), diazepam (0.2-0.6 mg/kg) and sodium pentobarbital 50-100 mg to effect. Plane of anesthesia was maintained throughout the study using 1% to 2% isoflurane. Left and right heart catheterization was performed via a femoral arteriotomy and venotomy. After each catheterization, the vessels were repaired using 6-0 silk and the skin closed with 4-0 suture. Microembolizations were discontinued when LV ejection fraction, determined angiographically, was between 30% and 40%. A period of 2 weeks was allowed after the last embolization to ensure that infarctions produced by the last microembolizations have completely healed and heart failure was established. The study protocol was then performed.
(§3) Healthy, conditioned, purpose-bred mongrel dogs weighing between 19 and 25 kg.
(§4) A randomized, blinded, placebo controlled study design was used. A total of 28 dogs underwent multiple sequential intracoronary microembolizations as described above to produce chronic heart failure. Two weeks after the last embolization, dogs were randomized into 4 study groups (treatment arms). Dogs were randomized to 3 months oral therapy with ranolazine alone (375 mg, bid, n=7), ranolazine (375 mg bid) in combination with metoprolol tartrate (25 mg bid, n=7), ranolazine (375 mg bid) in combination with enalapril (10 mg bid, n=7), or placebo (ranolazine vehicle bid, n=7). Hemodynamic, angiographic, echocardiographic, Doppler and neurohumoral measurements were made prior to randomization (2 weeks after the last embolization) and after completion of therapy (3 months after initiating therapy). After completing the final hemodynamic and angiographic study, dogs were euthanized and the hearts removed and tissue prepared and saved for future histological and biochemical evaluations. The study primary and secondary end-points were as follows:
On the day of sacrifice, after completion of all hemodynamic and angiographic studies, the dog's chest was opened through a left thoracotomy, the pericardium was opened and the heart rapidly removed and placed in ice-cold, Tris buffer (pH 7.4). Three 2 mm thick transverse slices were obtained from the LV; one slice from the basal third, one from the middle third and one from the apical third and placed in 10% formalin. Transmural blocks were also obtained and rapidly frozen in isopentane cooled to −160° C. by liquid nitrogen and stored at −70° C. until needed. LV tissue samples were also obtained and stored in gluteraldehyde for future scanning and transmission electron microscopic studies.
From each heart, 3 transverse slices one from the basal third, middle third and apical third of the LV, each […], were obtained. For comparison, tissue samples from 7 normal dogs were obtained and prepared in an identical manner. From each transverse slice, transmural tissue blocks were obtained and embedded in paraffin blocks. From each block, 6 μm thick sections were prepared and stained with Gomori trichrome to identify fibrous tissue. […]

[2] = test system: dogs with chronic heart failure produced by multiple sequential intracoronary microembolizations; assay: Blood neurohumoral and electrolyte measurements in dogs with chronic heart failure; format: in vivo, dog; conditions: mean±SEM; for T-PNE = transmyocardial norepinephrine: aorta minus coronary sinus
Text: as §1, §2, §3, §4
Evaluation of plasma concentrations of several neurohormones were made to complement the hemodynamic assessments. Measurements were made at each of the study time periods described for hemodynamic and angiographic assessments. Transmyocardial PNE concentration was estimated by obtaining blood samples from the ascending aorta and coronary sinus during cardiac catheterization. Transmyocardial PNE was calculated as the difference between the two samples. Venous blood samples were obtained in duplicate from conscious dogs prior to cardiac catheterizations for measurement of plasma concentration of norepinephrine, plasma renin activity and plasma atrial natriuretic factor using radioimmunoassay. In addition, blood samples were obtained at the same time intervals for determination of serum electrolytes (Na+, K+, creatinine and BUN).
To ensure that all study measures were similar at baseline, comparisons were made between all 4 study groups before any embolizations and at the time of randomization before initiation of therapy. For these comparisons, a one way analysis of variance (ANOVA) was used with a set at 0.05. If significance was attained, then group wise comparisons were made using the Student-Newman-Kuels test with significance set at p≦0.05. […]

[3] = POST: after 3 months of oral therapy bid
[4] = PRE: at time of randomization, before therapy
[5] = change from pre-treatment to post-treatment (3 months)

`COc1ccccc1OCC(O)CN1CCN(CC(=O)Nc2c(C)cccc2C)CC1` (racemic) [RAN Alone, (±)-N-(2,6-dimethylphenyl)-4-[2-hydroxy-3-(2-methoxyphenoxy)-propyl]-1-piperazineacetamide] was tested, and the “VFRF = volume fraction of replacement fibrosis” value ([1]; LV tissue after 3 months of therapy, mean±SEM, normal dogs 0 ± 0, placebo 14.6 ± 1.2) was 10.5 ± 2.1 %, the “VFIF = volume fraction of interstitial fibrosis” value ([1]; LV tissue after 3 months of therapy, mean±SEM, normal dogs 3.7 ± 0.1, placebo 13.0 ± 0.7) was 11.0 ± 0.4 % and the “ODD = oxygen diffusion distance” value ([1]; LV tissue after 3 months of therapy, mean±SEM, normal dogs 8.9 ± 0.2, placebo 11.5 ± 0.3) was 10.9 ± 0.2 μm. For the same compound, the “MCSA = myocyte cross-sectional area” value ([1]; LV tissue after 3 months of therapy, mean±SEM, normal dogs 409 ± 10, placebo 772 ± 21) was 685 ± 23 μm2, the “CD = capillary density” value ([1]; LV tissue after 3 months of therapy, mean±SEM, normal dogs 2607 ± 80, placebo 1706 ± 28) was 1832 ± 43 capillaries/mm2 and the “Histomorphometric measures (myocyte cross-sectional area, replacement and interstitial fibrosis, oxygen diffusion distance, capillary density) compared to placebo” value ([1]; after 3 months of therapy) was “significantly improved”. The “T-PNE = transmyocardial norepinephrine” value [2, 3] was −2.9 ± 6.1, the “ANF = atrial natriuretic factor” value [2, 3] was 67 ± 11 pg/mL and the “BUN = blood urea nitrogen” value [2, 3] was 15 ± 2 mg/dL. The “Creat = serum creatinine” value [2, 3] was 1.0 ± 0.1 mg/dL, the “K+ (serum electrolyte)” value [2, 3] was 4.7 ± 0.1 and the “Na+ (serum electrolyte)” value [2, 3] was 147 ± 0.8. The “PNE = plasma norepinephrine” value [2, 3] was 199 ± 43 pg/mL, the “PRA = plasma rennin activity” value [2, 3] was 1.57 ± .55 ng/mL/h and the “T-PNE = transmyocardial norepinephrine” value [2, 4] was 8.6 ± 7.0. For the same compound, the “ANF = atrial natriuretic factor” value [2, 4] was 87 ± 15 pg/mL, the “BUN = blood urea nitrogen” value [2, 4] was 18 ± 2 mg/dL and the “Creat = serum creatinine” value [2, 4] was 0.9 ± 0.0 mg/dL. For the same compound, the “K+ (serum electrolyte)” value [2, 4] was 4.5 ± 0.1, the “Na+ (serum electrolyte)” value [2, 4] was 147 ± 0.5 and the “PNE = plasma norepinephrine” value [2, 4] was 217 ± 25 pg/mL. For the same compound, the “PRA = plasma rennin activity” value [2, 4] was 1.69 ± .71 ng/mL/h, the “Δ ANF (atrial natriuretic factor)” value [2, 5] was 20 ± 14 pg/mL and the “Δ BUN (blood urea nitrogen)” value [2, 5] was -2.1 ± 1.4 mg/dL. The “Δ Creat (serum creatinine)” value [2, 5] was 0.0 ± 0.1 mg/dL, the “Δ K+” value [2, 5] was 0.1 ± 0.1 and the “Δ Na+” value [2, 5] was −0.3 ± 1.0. The “Δ PNE (plasma norepinephrine)” value [2, 5] was -19 ± 42 pg/mL, the “Δ PRA (plasma rennin activity)” value [2, 5] was 0.13 ± 0.92 ng/mL/h and the “Δ T-PNE (transmyocardial norepinephrine)” value [2, 5] was −11 ± 9.
